Like-named read-outs stand apart in the source and are kept apart here.
Columns and labels:
[1] = test system: isolated right ventricular trabecule of dog heart; assay: Extracellular electrophysiological measurements: impulse conduction time and effective refractory period; set-up: species or system mongrel dogs; conditions: for activation at 2 µM / activation at 10 µM: Canis lupus familiaris
Protocol: Right ventricular trabecules were prepared from the heart of mongrel dogs (weighing 5 to 10 kg each). The surviving heart pieces were placed into an organ bath (37° C.) containing modified Tyrode's nutrient medium and excited by point stimulation with a basal frequency of 1 Hz. Extracellular bipolar platinum electrodes were placed on the surface of the preparations, by means of which the propagation of the superficial potentials were registered; thus, the determination of the time of impulse conduction or the rate of impulse conduction, respectively, and the effective refractory period (ERP) became possible. During our experiments,the frequency of stimulation was temporarily varied from 0.5 Hz up to 3 Hz. The tested compounds were directly added to the organ bath after dilution of the stock solution according to the desired final concentration.

[2] = test system: Purkinje's fibres isolated from dog heart; assay: Intracellular microelectrode technique: action potential parameters, Purkinje's fibres; set-up: species or system mongrel dogs
Protocol: The method used is essentially in agreement with the method of Papp et al. [J. Cardiovascular Pharmacol. Ther. 1, 287-296 (1996)].
Right ventricular papillary muscle and Purkinje's fibres were prepared from the hearts of mongrel dogs (weighing 5 to 10 kg each). The preparations were placed into an organ bath (37° C.) containing modified Tyrode's nutrient medium. The preparations were excited by a basal frequency of 1 Hz. During the experiments, the frequency of stimulation was varied under broad limits by a computer-guided stimulator. The intracellular action potentials were registered by using glass capillary microelectrodes filled with 3 N potassium chloride solution (standard intracellular microelectrode techniques). The resting potential (RP), the amplitude of the action potential (APA) as well as the duration of the action potential (APD) were measured by using an IBM 386 compatible computer by means of an own-developed software. The compounds under test were directly added into the organ bath after dilution of the stock solutions according to the final concentrations desired. The effects of the compounds were observed after an incubation time of 30 to 40 minutes.

[3] = test system: dog Purkinje's fibres; assay: Effect on early after-depolarization induced by dofetilide and BaCl2; conditions: 2 μM; EAD induced by 1 μM dofetilide and 20 μM BaCl2
Protocol: An early after-depolarization (EAD) was induced on dog Purkinje's fibres by the simultaneous use of 1 μM dofetilide and 20 μM BaCl2. These EAD-s were abolished by the addition of the compound (2 μM) of Example 15.

[4] = in vivo; conditions: mouse, in vivo
Protocol: (§1) Determination of the LD50 Value on Mice
(§2) Animal: male CDI mice (starved) weighing 20 to 22 g each at the time of treatment.
(§3) Observation period: 2 weeks.
(§4) Vehicle: 1 to 2% of Tween-80 in distilled water or in physiological saline, respectively.
(§5) Treatment volume 0.1 ml/10 g of body-weight.

[5] = test system: mice; assay: in vivo
Protocol: as §1, §2, §3, §4, §5

[6] = test system: occlusion and reperfusion arrhythmias in anaesthetized rabbits; assay: Occlusion and reperfusion induced arrhythmias following acute coronary artery ligation in anaesthetized rabbits; assay type: in vivo, male rabbits; conditions: 0.03 mg/kg
Protocol: The method used is essentially in agreement with the method of Thiemermann et al. [Br. J. Pharmacol. 97, pp. 401-408 (1989)].
A loose surgical thread loop was placed round the left circumflex coronary artery of the heart following thoracotomy in pentobarbital (30 mg/kg i.v.) anaesthetized male rabbits (weighing 2 to 3 kg); both ends of the thread loop were led out from the chest through an elastic tube. Standard electrocardiogram was registered by using needle electrodes under the skin. The blood pressure of animals was continuously measured by using a catheter placed into the common carotid artery. After stabilization of the blood pressure and heart frequency, the loose loop was tightened to establish a regional myocardial ischaemia. After 10 minutes of ischaemia, the ligature was released and a reperfusion for 10 minutes was established. The survival, the incidence of arrhythmias, the time of onset of arrhythmia and the length of episodes were registered. The animals received physiological saline solution (control) intravenously (2 ml/kg) or 0.03 mg/kg of the compound of Example 15 or a 3 mg/kg dose of d-sotalol at 5 minutes before the occlusion.
By using this method, it can be stated whether the compound under test would be effective for the protection from arrhythmias following coronary artery ligation.

[7] = test system: arrhythmias following coronary artery occlusion in conscious rats; assay: Occlusion arrhythmia following acute coronary artery ligation in conscious rats; assay type: in vivo, male rats
From the text: The method used is essentially in agreement with the method of Lepran et al. [J. Pharmacol. Methods 9, pp. 219-230 (1983)].
During a previous operation, male rats weighing 340 to 360 g each were fitted with a loose surgical thread loop around the left descending coronary vessel, at about 2 mm from its origin. The ends of the loop thread were led out from the chest under the skin, then the surgical wound was closed. After complete recovery from this previous operation (7 to 8 days) acute myocardial ischaemia was induced by contracting the loose ligation in the conscious, freely moving animals. ECG was continuously registered by using bipolar chest electrodes before the ligation of the coronary artery and during the first 15 minutes of ischaemia. The ratio of survivals was determined and the developed arrhythmias were evaluated according to the Lambeth Convention [Walker et al.: Cardiovasc. Res. 22, 447-455 (1988)]. For evaluation of the arrhythmic episodes a score system was also employed by considering the severity of episodes on the basis of a score system from 0 to 6. Both d-sotalol and the substance of Example 15, respectively, were suspended in 1% methylcellulose and administered orally through a gastric sound at 1 hour before the compression of the coronary vessel. The control animals received a treatment with the same volume, i.e. 5 ml/kg of vehicle.

[8] = 1 Hz, read-out: Prolongation (%) of ERP
[9] = 1 Hz, read-out: Prolongation (%) of impulse conduction time
[10] = 3 Hz, read-out: Prolongation (%) of ERP
[11] = 3 Hz, read-out: Prolongation (%) of impulse conduction time
[12] = p.o. 25 mg/kg, first 15 minutes

Cc1cccc(C)c1OCC(C)N(C)CCc1ccc(NS(C)(=O)=O)cc1.Cl (stereo not shown) [Example 15, N-[4-[2-[N-Methyl-N-[2-(2,6-dimethylphenoxy)-1-methylethyl]amino]ethyl]phenyl]methanesulfonamide hydrochloride]
activation at 2 µM [1, 8]: 11.6%
activation at 2 µM [1, 9]: 11.1%
activation at 2 µM [1, 10]: 13.6%
activation at 2 µM [1, 11]: 13.4%
activation at 10 µM [1, 8]: 22.8%
activation at 10 µM [1, 9]: 42%
activation at 10 µM [1, 10]: 31.3%
activation at 10 µM [1, 11]: 73.8%
effect on effective refractory period (in words) ([1]; concentrations of Table 1): simultaneous prolongation of the effective refractory period (ERP)
effect on impulse conduction (in words) ([1]; concentrations of Table 1): significantly prolonged the time of impulse conduction in a frequency-dependent manner
effect on APD on Purkinje's fibres (in words) ([2]; 2 μM and 5 μM): abbreviated APD on Purkinje's fibres of the dog
APA (amplitude of the action potential) ([2]; 2 μM, N 3): 112.7 ± 3.9 mV
APD50 (time of 50% repolarization) ([2]; 2 μM, N 3): 180.7 ± 14.8 ms
APD90 (time of 90% repolarization) ([2]; 2 μM, N 3): 400.0 ± 47.4 ms
MDP (maximal diastolic potential) ([2]; 2 μM, N 3): -81.7 ± 2.4 mV
Vmax (maximum rate of depolarization) ([2]; 2 μM, N 3): 392.3 ± 23.7 V/s
APA ([2]; 5 μM, 1 Hz, N = 6): 111.0 ± 2.4 mV
APD50 ([2]; 5 μM, 1 Hz, N = 6): 121.3 ms
APD90 ([2]; 5 μM, 1 Hz, N = 6): 279.0 mS
RP ([2]; 5 μM, 1 Hz, N = 6): -86.0 ± 2.0 mV
Vmax ([2]; 5 μM, 1 Hz, N = 6): 439.3 V/s
effect on early after-depolarization (EAD) (in words) [3]: abolished
LD50 at 336 h ([4]; ip): 170 mg/kg
LD50 at 336 h ([4]; po): 550 to 650 mg/kg
cause of death ([5]; i.p.): respiratory paralysis
Mortality ([5]; i.p. 150 mg/kg): 1/10
Mortality ([5]; i.p. 175 mg/kg): 7/10
Mortality ([5]; i.p. 200 mg/kg): 9/10
cause of death ([5]; p.o.): respiratory paralysis
Mortality ([5]; p.o. 500 mg/kg): 0/5
Mortality ([5]; p.o. 600 mg/kg): 2/5
Mortality ([5]; p.o. 700 mg/kg): 5/5
antiarrhythmic effect against reperfusion arrhythmias (in words) [6]: strong antiarrhythmic effect
heart rate (in words) ([7]; 25 mg/kg, first 15 minutes of myocardial infarction): statistically unchanged
antiarrhythmic effect (in words) ([7]; oral administration): showed an antiarrhythmic effect even after oral administration
Survival 15 minutes ([7]; p.o. 25 mg/kg): 8/50
Survival 16 hours ([7]; p.o. 25 mg/kg): 7/44
Occurrence of arrhythmias: Brady [7, 12]: 2/12
Occurrence of arrhythmias: Free (no arrhythmia was observed) [7, 12]: 3/19
Occurrence of arrhythmias: Other [7, 12]: 9/56
Occurrence of arrhythmias: VF [7, 12]: 10/63
Occurrence of arrhythmias: VT [7, 12]: 12/75
Arrhythmia Score ([7]; p.o. 25 mg/kg, score system from 0 to 6): 3.94 ± 0.64

Source: US6265445A, “Antiarrhythmic compounds” (priority 1997, dated 2001)
